The values that follow are results of earlier work, collected in patent US20150216903A1, “COMPOUNDS FOR IMPROVED VIRAL TRANSDUCTION” (BLUEBIRD BIO, INC., priority 2012, published 2015).

In one data set the test system is HIV. As to conditions: previous publications (Hayes 2002); cited from earlier work.
The conditions of data set [1]: Raz, FEBS Letters 1972; cited from earlier work.

In the case of `CCCCC[C@H](O)/C=C/[C@H]1C=CC(=O)[C@@H]1C/C=C\CCCC(=O)O` [PGA2, prostaglandin A2], the “effect on HIV replication” value in the data set with HIV is reported as “inhibits HIV replication”.
Take `CCCCC[C@H](O)/C=C/[C@H]1[C@H](O)CC(=O)[C@@H]1C/C=C\CCCC(=O)O` [PGE2, prostaglandin E2]: the “effect on HIV replication” value in the data set on HIV was “antagonistic to HIV replication”. Besides, the “conversion upon exposure to plasma” value in data set [1] is “rapidly converts to prostaglandin A2 (PGA2)”.
